Source: patent US20230312587A1, “PTERIDINONE COMPOUNDS AND USES THEREOF” (Vertex Pharmaceutical Incorporated, priority 2018, published 2023)

What follows are compounds tested on β-catenin-TCF-mediated reporter transcription activity in Colo 205 cells (assay: Colo 205 reporter assay (TCF/LEF luciferase)). Conditions: Colo 205 TCF/LEF luciferase reporter, five hours after addition of compound; read-out: TCF reporter Colo205 IC50.
Type: cell-based
In short: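 Luciferase signal from a TCF/LEF-driven reporter, stably integrated in Colo 205 colon cancer cells, was measured 5 h after compound addition.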

IC50 [µM]	SMILES
< 0.3	Cc1nc(N[C@H]2C[C@H](Oc3ccc(F)cc3F)C2)nc2c1NC(=O)[C@H](C)N2C (relative stereo) [Compound 295, (7S)-4,7,8-trimethyl-2-((trans-3-(2,4-drifluorophenoxy)cyclobutyl)amino)-7,8-dihydropteridin-6(5H)-one]

Same assay, conditions: Homo sapiens, 5 h; Colo 205 TCF/LEF luciferase reporter, five hours after addition of compound; read-out: TCF reporter Colo205 IC50

SMILES	IC50 [µM]
Cc1nc(N[C@H]2C[C@H](NC(=O)Oc3cc(F)c(F)c(F)c3)C2)nc2c1NC(=O)[C@H](C)N2C [Compound 483, 3,4,5-trifluorophenyl (trans-3-(((S)-4,7,8-trimethyl-6-oxo-5,6,7,8-tetrahydropteridin-2-yl)amino)cyclobutyl)carbamate]	1 to 5

Same assay, conditions: Homo sapiens, COLO 205, 5 h, Colo 205 TCF/LEF luciferase reporter, five hours after addition of compound; read-out: TCF reporter Colo205 IC50

SMILES	IC50 [µM]
COc1ccc(O[C@H]2C[C@H](Nc3nc(C)c4c(n3)N(C)[C@@H](C)C(=O)N4)C2)cc1F [Compound 350, (7S)-2-((trans-3-(3-fluoro-4-methoxyphenoxy)cyclobutyl)amino)-4,7,8-trimethyl-7,8-dihydropteridin-6(5H)-one]	0.3 to 1
Cc1nc(NCc2cnn(Cc3ccc(C(F)(F)F)nc3)c2)nc2c1NC(=O)[C@H]([C@@H](C)O)N2C [Compound 744, (S)-7-((R)-1-hydroxyethyl)-4,8-dimethyl-2-(((1-((6-(trifluoromethyl)pyridin-3-yl)methyl)-1H-pyrazol-4-yl)methyl)amino)-7,8-dihydropteridin-6(5H)-one]	0.3 to 1
Cc1nc(N[C@H]2C[C@@H](Sc3ccc(C(F)(F)F)cc3)C2)nc2c1NC(=O)[C@H](C)N2C [Compound 321, (7S)-4,7,8-trimethyl-2-((cis-3-((4-(trifluoromethyl)phenyl)thio)cyclobutyl)amino)-7,8-dihydropteridin-6(5H)-one]	0.3 to 1
Cc1nc(NCc2cnn(Cc3ccc(C(F)(F)F)nc3)c2)nc2c1NC(=O)[C@H](CC(F)(F)F)N2C [Compound 495, (S)-4,8-dimethyl-7-(2,2,2-trifluoroethyl)-2-(((1-((6-(trifluoromethyl)pyridin-3-yl)methyl)-1H-pyrazol-4-yl)methyl)amino)-7,8-dihydropteridin-6(5H)-one]	< 0.3
CN1C(=O)C(C)(C)Nc2nc(NCc3cnn(Cc4ccc(F)cc4)c3)ncc21 [Compound 225, 2-(((1-(4-Fluorobenzyl)-1H-pyrazol-4-yl)methyl)amino)-5,7,7-trimethyl-7,8-dihydropteridin-6(5H)-one]	≥ 5
Cc1nc(NC2CN(Cc3ccc(C(F)(F)F)cc3)C2)nc2c1NC(=O)[C@H](C(C)C)N2C [Compound 650, (S)-7-isopropyl-4,8-dimethyl-2-((1-(4-(trifluoromethyl)benzyl)azetidin-3-yl)amino)-7,8-dihydropteridin-6(5H)-one]	< 0.3
Cc1nc(NCc2cnn(Cc3ccccc3C(C)C)c2)nc2c1NC(=O)[C@H](C)N2C [Compound 78, (7S)-2-(((1-(2-isopropylbenzyl)-1H-pyrazol-4-yl)methyl)amino)-4,7,8-trimethyl-7,8-dihydropteridin-6(5H)-one]	< 0.3
Cc1nc(NC2CN(C(=O)c3cc(C(F)(F)F)n(C)n3)C2)nc2c1NC(=O)[C@H](C(C)C)N2C [Compound 597, (S)-7-isopropyl-4,8-dimethyl-2-((1-(1-methyl-5-(trifluoromethyl)-1H-pyrazole-3-carbonyl)azetidin-3-yl)amino)-7,8-dihydropteridin-6(5H)-one]	1 to 5
Cc1nc(NCc2cnn(Cc3ccc(F)c(F)c3)c2)nc2c1NC(=O)[C@H](C)N2C [Compound 140, (7S)-2-(((1-(3,4-difluorobenzyl)-1H-pyrazol-4-yl)methyl)amino)-4,7,8-trimethyl-7,8-dihydropteridin-6(5H)-one]	< 0.3
Cc1nc(N[C@H]2CCN(C(=O)c3cc(F)c(F)c(F)c3)C2)nc2c1NC(=O)[C@H](C(C)C)N2C [Compound I-509]	0.3 to 1
Cc1nc(N[C@H]2C[C@H](NCc3cc(F)c(F)c(F)c3)C2)nc2c1NC(=O)[C@H](C(C)C)N2C [Compound 535, (S)-7-isopropyl-4,8-dimethyl-2-((trans-3-((3,4,5-trifluorobenzyl)amino)cyclobutyl)amino)-7,8-dihydropteridin-6(5H)-one]	< 0.3
Cc1nc(N[C@H]2C[C@H](NC(=O)Nc3ccc(Cl)nc3)C2)nc2c1NC(=O)[C@H](C)N2C [Compound 463, 1-(6-chloropyridin-3-yl)-3-(trans-3-(((S)-4,7,8-trimethyl-6-oxo-5,6,7,8-tetrahydropteridin-2-yl)amino)cyclobutyl)urea]	≥ 5
Cc1nc(N[C@H]2CCN(Cc3ccc(F)cc3)C2)nc2c1NC(=O)[C@H](C)N2C [Compound 374, (7S)-2-(((S)-1-(4-fluorobenzyl)pyrrolidin-3-yl)amino)-4,7,8-trimethyl-7,8-dihydropteridin-6(5H)-one]	≥ 5
Cc1nc(NC2CN(S(=O)(=O)c3ccc(F)cc3)C2)nc2c1NC(=O)[C@H](C(C)C)N2C [Compound 592, (7S)-2-((1-((4-fluorophenyl)sulfonyl)azetidin-3-yl)amino)-7-isopropyl-4,8-dimethyl-7,8-dihydropteridin-6(5H)-one]	≥ 5
Cc1nc(NCc2cnn(Cc3cc(C(F)(F)F)ccn3)c2)nc2c1NC(=O)[C@H](C)N2C [Compound 201, (7S)-4,7,8-trimethyl-2-(((1-((4-(trifluoromethyl)pyridin-2-yl)methyl)-1H-pyrazol-4-yl)methyl)amino)-7,8-dihydropteridin-6(5H)-one]	0.3 to 1
Cc1nc(N[C@@H]2CO[C@H](COc3cc(F)c(F)c(F)c3)C2)nc2c1NC(=O)[C@H](C)N2C [Compound 308, (7S)-4,7,8-trimethyl-2-(((3S,5S)-5-((3,4,5-trifluorophenoxy)methyl)tetrahydrofuran-3-yl)amino)-7,8-dihydropteridin-6(5H)-one]	1 to 5
Cc1nc(N[C@H]2C[C@@H](Nc3ccc(F)cn3)C2)nc2c1NC(=O)[C@H](C(C)C)N2C [Compound 732, (S)-2-((cis-3-((5-fluoropyridin-2-yl)amino)cyclobutyl)amino)-7-isopropyl-4,8-dimethyl-7,8-dihydropteridin-6(5H)-one]	1 to 5

Now from value to compound:

IC50 [µM]	SMILES
0.3 to 1	C[C@H]1C(=O)Nc2cnc(NCc3cnn(CCc4cc(F)cc(F)c4)c3)nc2N1C [Compound 120, (7S)-2-(((1-(3,5-difluorophenethyl)-1H-pyrazol-4-yl)methyl)amino)-7,8-dimethyl-7,8-dihydropteridin-6(5H)-one]
< 0.3	Cc1nc(NCc2cnn(Cc3ccc(C(F)(F)F)nc3)c2)nc2c1NC(=O)C1(CC1)N2C [Compound 239, 4′,8′-dimethyl-2′-(((1-((6-(trifluoromethyl)pyridin-3-yl)methyl)-1H-pyrazol-4-yl)methyl)amino)-5′,8′-dihydro-6′H-spiro[cyclopropane-1,7′-pteridin]-6′-one]
< 0.3	Cc1nc(NCc2cnn(Cc3ccc(F)c(F)c3F)c2)nc2c1N(C)C(=O)[C@H](C)N2C [Compound 17, (7S)-4,5,7,8-tetramethyl-2-(((1-(2,3,4-trifluorobenzyl)-1H-pyrazol-4-yl)methyl)amino)-7,8-dihydropteridin-6(5H)-one]
< 0.3	Cc1nc(N[C@H]2C[C@H](Oc3ccc(F)c(F)c3)C2)nc2c1N(C)C(=O)[C@H](C)N2C [Compound 252, (7S)-2-((trans-3-(3,4-difluorophenoxy)cyclobutyl)amino)-4,5,7,8-tetramethyl-7,8-dihydropteridin-6(5H)-one]
1 to 5	Cc1nc(N[C@@H]2CC[C@H](N(C)c3ccc(C(F)(F)F)cc3)C2)nc2c1NC(=O)[C@H](C(C)C)N2C [Compound 505, (S)-7-isopropyl-4,8-dimethyl-2-(((1R,3S)-3-(methyl(4-(trifluoromethyl)phenyl)amino)cyclopentyl)amino)-7,8-dihydropteridin-6(5H)-one]
< 0.3	Cc1nc(NCc2cnn(Cc3ccc(OC(F)(F)F)nc3)c2)nc2c1NC(=O)[C@H](C(C)C)N2C [Compound 510, (S)-7-isopropyl-4,8-dimethyl-2-(((1-((6-(trifluoromethoxy)pyridin-3-yl)methyl)-1H-pyrazol-4-yl)methyl)amino)-7,8-dihydropteridin-6(5H)-one]
0.3 to 1	Cc1nc(NCc2cnn(Cc3ccc(C#N)nc3)c2)nc2c1NC(=O)[C@H](C)N2C [Compound 176, (7S)-5-((4-(((4,7,8-trimethyl-6-oxo-5,6,7,8-tetrahydropteridin-2-yl)amino)methyl)-1H-pyrazol-1-yl)methyl)picolinonitrile]
< 0.3	CO[C@H](C)[C@H]1C(=O)Nc2c(C)nc(N[C@H]3C[C@@H](Cn4nccc4C(F)(F)F)C3)nc2N1C [Compound 588, (S)-7-((R)-1-methoxyethyl)-4,8-dimethyl-2-((cis-3-((5-(trifluoromethyl)-1H-pyrazol-1-yl)methyl)cyclobutyl)amino)-7,8-dihydropteridin-6(5H)-one]
< 0.3	Cc1nc(NCc2cnn(CCc3ccc(F)cc3F)c2)nc2c1NC(=O)[C@H](C)N2C [Compound 106, (7S)-2-(((1-(2,4-difluorophenethyl)-1H-pyrazol-4-yl)methyl)amino)-4,7,8-trimethyl-7,8-dihydropteridin-6(5H)-one]
< 0.3	Cc1nc(NC2CN(C(=O)Cc3cc(F)cc(F)c3)C2)nc2c1NC(=O)[C@H](C(C)C)N2C [Compound 629, (S)-2-((1-(2-(3,5-difluorophenyl)acetyl)azetidin-3-yl)amino)-7-isopropyl-4,8-dimethyl-7,8-dihydropteridin-6(5H)-one]

Same assay, conditions: Homo sapiens, COLO 205, 5 h, R-isomer at C2 (corresponding to C2 S-isomer); Colo 205 TCF/LEF luciferase reporter, 5 h; read-out: TCF reporter Colo205 IC50

IC50 [µM]	SMILES
< 0.3	CCN1C(=O)[C@@H](C)N(CC)c2nc(NCc3cnn(Cc4cc(F)c(F)c(F)c4)c3)ncc21 [Compound I-1349]
0.3 to 1	Cc1nc(NCc2cnn(Cc3ccc(F)cc3)c2)nc2c1N(C)C(=O)[C@@H](C)N2C [Compound I-866]
≥ 5	COCC[C@@H]1C(=O)Nc2c(C)nc(NCc3cnn(Cc4cc(C(F)(F)F)nn4C)c3)nc2N1C [Compound I-1648]
